Among the data in US9346797B1, “2-amino 6-(difluoromethyl)-5,5-difluoro-6-phenyl-3,4,5,6-tetrahydropyridines as BACE1 inhibitors” (H. Lundbeck A/S, priority 2014, dated 2016) are Aβ40 reduction values, retold here.

Each structure is given as a SMILES string.

For the assay, the system named is Aβ40. Kind of assay: Assessment of Aβ levels in rat brain and plasma following BACE1 inhibition (Aβ40 ELISA). The assay is classed as in vivo. As to conditions: 3 hours post dose, vs vehicle. How it is done: Young adult Male Sprague Dawley rats of approximately 250 g weight were purchased from Charles River and received 0-30 mg/kg of vehicle (10% HP betaCD+1M MeSO4, pH 2.5) or test compounds (dissolved in vehicle) only by oral gavage (p.o). The compounds are dosed at a volume of 5 ml/kg. Cohorts of 5-10 animals were established for each treatment condition.
At T=180 minutes after initial dosing the animals were stunned and decapitated with a guillotine. Trunk-blood was sampled in EDTA coated tubes after decapitation of the animal. The blood was centrifuged at 2200 G at 4° C. for 15 minutes and the plasma was collected and frozen at −80° C. The blood was aliquoted for Aβ ELISA and DMPK analysis Immediately following sacrifice, the brain was extracted and split into 2 halves. The right hemibrains were snap frozen on dry ice and stored at −80° C. The left half was dissected; with the front forebrain taken for Aβ ELISA and the remainder used for DMPK analysis. These samples were also snap frozen on dry ice and stored at −80° C. until use for analysis.
The cortex samples were thawed slightly on wet ice before they were homogenized with a small volume dispersing instrument (T10 basic ULTRA-TURRAX®) which was set at speed 5 for approximately 5-7 sec. The tissue was processed in a 10 times volume of the weight, for example 100 mg of tissue was homogenized in 1000 μL of Homogenization buffer. Homogenization buffer: 50 ml Milli Q water+50 nM NaCl+0.2% Diethylamin (DEA)+1 tablet of Complete Protease inhibitor cocktail+1 nM 4-(2-aminoethyl) benzenesulfonyl fluoride hydrochloride irreversible serine protease inhibitor (AEBSF).
After homogenization 450 μL aliquots of the samples are collected into a 1.5 ml Eppendorf tube and placed on wet ice, 0.5% NP-40 (50 ul) was added to all samples and then they were incubated on ice for 30 min. After which all samples were sonicated using an Ultrasonic homogenizer with 20 kHz homogeneous sound (SONOPLUS HD2070, Bandelin Electronic) 10 pulse set at 12-13% power to extract all the Aβ species. The samples were then centrifuged (Ole Dich 157 MPRF Micro centrifuge) at 20000 G for 20 minutes at 4° C. After centrifugation 285 μL of the supernatant was pipetted into 600 μL microtubes tubes and neutralized with 15 μL of 1M Tris-HCL buffer.
WAKO 294-62501 Human/Rat Abeta amyloid (40) kit was used for all ELISA analyses. 30 μL plasma samples or 30 μL of the cortex supernatants generated as described above were placed in 600 μL microtubes tubes on wet ice. To this 30 μL of 8M Urea (AppliChem A1049, 9025) are added to generate a 2-fold dilution. Both plasma and cortex supernatants are incubated on ice for 30 min. Standard rows were prepared from the standard peptide stock provided in the kit and standard diluent containing 1.6M Urea (200 μL 8M Urea+800 μL of standard diluent) and 0.8M Urea (400 μL 8M Urea+3600 μL Standard diluent). A serial 2-fold dilution of Aβ40 from 100 pmol/ml to 0 pmol/L was prepared for the assay.
After incubation with urea, all samples were further diluted by addition of 5 times standard diluent from the Kit. This was done by adding 240 μL Standard Diluent to 60 μL sample/urea mixture, which was then mixed well. 100 μL of each diluted sample was pipetted into designated wells of the ELISA plate in duplicates. The plate was then covered and incubated overnight at 4° C. The following day, the ELISA kit was brought to room temperature before use. The incubated plate was washed 5 times with the 20× washing solution diluted in Milli Q water. 100 μL HRP-conjugate was applied to each well, and the plate was covered and incubates at 4° C. for 1 hr. The wash was repeated again for 5 times. 100 μL 3,3′,5,5′-Tetramethylbenzidine (TMB) solution was applied to each well and the plate was covered and incubated in the dark at room temperature for 30 minutes. […]
In general terms: ELISA stands for enzyme-linked immunosorbent assay.

As to `COc1cnc(C(=O)Nc2ccc(F)c([C@@]3(C(F)F)N=C(N)CCC3(F)F)c2)cn1` [Compound 3, (S)—N-(3-(6-amino-2-(difluoromethyl)-3,3-difluoro-2,3,4,5-tetrahydropyridin-2-yl)-4-fluorophenyl)-5-methoxypyrazine-2-carboxamide], the Aβ40 reduction worked out at 24% (brain, 10 mg/kg p.o.); 38% (brain, 30 mg/kg p.o.); 39% (plasma, 10 mg/kg p.o.); 42% (plasma, 30 mg/kg p.o.).
As to `COc1ccc(C(=O)Nc2ccc(F)c([C@@]3(C(F)F)N=C(N)CCC3(F)F)c2)nc1` [Compound 5, (S)—N-(3-(6-amino-2-(difluoromethyl)-3,3-difluoro-2,3,4,5-tetrahydropyridin-2-yl)-4-fluorophenyl)-5-methoxypicolinamide], the Aβ40 reduction (brain, 10 mg/kg p.o.) was determined as 5%; the Aβ40 reduction (brain, 30 mg/kg p.o.) was 36%; the Aβ40 reduction (plasma, 10 mg/kg p.o.) is 40%; the Aβ40 reduction (plasma, 30 mg/kg p.o.) was 49%.
